Source: ChEMBL document CHEMBL4507304, “Data for DCP probe TP-021” (2021)

What was measured:
[1] = system: Mast/stem cell growth factor receptor Kit (Homo sapiens), P10721 [D816H]; settings: Compound concentration 1000.0 nM
[2] = target: Mitogen-activated protein kinase 11 (Homo sapiens) (UniProt Q15759); settings: Compound concentration 1000.0 nM
[3] = system: Tyrosine-protein kinase ABL1 (Homo sapiens), P00519 [Y253F]; settings: Compound concentration 1000.0 nM
[4] = target: Eukaryotic translation initiation factor 2-alpha kinase 1 (Homo sapiens) (UniProt Q9BQI3); settings: Compound concentration 1000.0 nM
[5] = system: Tyrosine-protein kinase ABL1 (Homo sapiens), P00519 [E255K]; settings: Compound concentration 1000.0 nM
[6] = target: Testis-specific serine/threonine-protein kinase 1 (Homo sapiens) (UniProt Q9BXA7); settings: Compound concentration 1000.0 nM
[7] = target: Cyclin-dependent kinase 2 homolog (Plasmodium falciparum (isolate 3D7)) (UniProt P61075); settings: Compound concentration 1000.0 nM
[8] = target: Ribosomal protein S6 kinase alpha-2 (Homo sapiens) (UniProt Q15349); settings: Compound concentration 1000.0 nM
[9] = target: Serine/threonine-protein kinase TNNI3K (Homo sapiens) (UniProt Q59H18); settings: Compound concentration 1000.0 nM
[10] = target: Mitogen-activated protein kinase 7 (Homo sapiens) (UniProt Q13164); settings: Compound concentration 1000.0 nM
[11] = target: Atypical kinase COQ8B, mitochondrial (Homo sapiens) (UniProt Q96D53); settings: Compound concentration 1000.0 nM
[12] = target: Interleukin-1 receptor-associated kinase 1 (Homo sapiens) (UniProt P51617); settings: Compound concentration 1000.0 nM
[13] = target: Casein kinase I isoform alpha-like (Homo sapiens) (UniProt Q8N752); settings: Compound concentration 1000.0 nM
[14] = target: Tyrosine-protein kinase CSK (Homo sapiens) (UniProt P41240); settings: Compound concentration 1000.0 nM
[15] = target: Serine/threonine-protein kinase TAO3 (Homo sapiens) (UniProt Q9H2K8); settings: Compound concentration 1000.0 nM
[16] = target: NUAK family SNF1-like kinase 2 (Homo sapiens) (UniProt Q9H093); settings: Compound concentration 1000.0 nM
[17] = target: Bone morphogenetic protein receptor type-2 (Homo sapiens) (UniProt Q13873); settings: Compound concentration 1000.0 nM
[18] = target: Kappa-type opioid receptor (Homo sapiens) (UniProt P41145); settings: Compound concentration 10.0 uM
[19] = target: MAP kinase-activated protein kinase 5 (Homo sapiens) (UniProt Q8IW41); settings: Compound concentration 1000.0 nM
[20] = target: Alpha-2A adrenergic receptor (Homo sapiens) (UniProt P08913); settings: Compound concentration 10.0 uM
[21] = system: ALK tyrosine kinase receptor (Homo sapiens), Q9UM73 [C1156Y]; settings: Compound concentration 1000.0 nM
[22] = system: Mast/stem cell growth factor receptor Kit (Homo sapiens), P10721 [V559D,T670I]; settings: Compound concentration 1000.0 nM
[23] = target: Serine/threonine-protein kinase tousled-like 2 (Homo sapiens) (UniProt Q86UE8); settings: Compound concentration 1000.0 nM
[24] = target: Ribosomal protein S6 kinase alpha-6 (Homo sapiens) (UniProt Q9UK32); settings: Compound concentration 1000.0 nM
[25] = target: Ephrin type-A receptor 3 (Homo sapiens) (UniProt P29320); settings: Compound concentration 1000.0 nM
[26] = system: Hepatocyte growth factor receptor (Homo sapiens), P08581 [M1250T]; settings: Compound concentration 1000.0 nM
[27] = target: Serine/threonine-protein kinase Sgk3 (Homo sapiens) (UniProt Q96BR1); settings: Compound concentration 1000.0 nM
[28] = target: Ephrin type-B receptor 4 (Homo sapiens) (UniProt P54760); settings: Compound concentration 1000.0 nM
[29] = target: Protein-tyrosine kinase 2-beta (Homo sapiens) (UniProt Q14289); settings: Compound concentration 1000.0 nM
[30] = target: Mitogen-activated protein kinase kinase kinase 20 (Homo sapiens) (UniProt Q9NYL2); settings: Compound concentration 1000.0 nM
[31] = target: Serine/threonine-protein kinase MAK (Homo sapiens) (UniProt P20794); settings: Compound concentration 1000.0 nM
[32] = target: Ribosomal protein S6 kinase alpha-2 (Homo sapiens) (UniProt Q15349); settings: Compound concentration 1000.0 nM; remark: listed apart in the source
[33] = target: Serine/threonine-protein kinase PLK1 (Homo sapiens) (UniProt P53350); settings: Compound concentration 1000.0 nM
[34] = target: Phosphatidylinositol 5-phosphate 4-kinase type-2 beta (Homo sapiens) (UniProt P78356); settings: Compound concentration 1000.0 nM
[35] = target: Cyclin-dependent kinase 9 (Homo sapiens) (UniProt P50750); settings: Compound concentration 1000.0 nM
[36] = system: Serine/threonine-protein kinase B-raf (Homo sapiens), P15056 [V600E]; settings: Compound concentration 1000.0 nM
[37] = system: Epidermal growth factor receptor (Homo sapiens), P00533 [L858R,T790M]; settings: Compound concentration 1000.0 nM
[38] = system: Tyrosine-protein kinase ABL1 (Homo sapiens), P00519 [F317L]; settings: Compound concentration 1000.0 nM
[39] = target: Tyrosine-protein kinase FRK (Homo sapiens) (UniProt P42685); settings: Compound concentration 1000.0 nM
[40] = target: MAP kinase-activated protein kinase 2 (Homo sapiens) (UniProt P49137); settings: Compound concentration 1000.0 nM
[41] = target: Misshapen-like kinase 1 (Homo sapiens) (UniProt Q8N4C8); settings: Compound concentration 1000.0 nM
[42] = target: Inhibitor of nuclear factor kappa-B kinase subunit epsilon (Homo sapiens) (UniProt Q14164); settings: Compound concentration 1000.0 nM
[43] = system: Epidermal growth factor receptor (Homo sapiens), P00533 [UNDEFINED MUTATION]; settings: Compound concentration 1000.0 nM
[44] = target: Cyclin-dependent kinase 4 (Homo sapiens) (UniProt P11802); settings: Compound concentration 1000.0 nM
[45] = target: D(1A) dopamine receptor (Homo sapiens) (UniProt P21728); settings: Compound concentration 10.0 uM

Sequence of Ribosomal protein S6 kinase alpha-2 (Homo sapiens) (Q15349 whole entry): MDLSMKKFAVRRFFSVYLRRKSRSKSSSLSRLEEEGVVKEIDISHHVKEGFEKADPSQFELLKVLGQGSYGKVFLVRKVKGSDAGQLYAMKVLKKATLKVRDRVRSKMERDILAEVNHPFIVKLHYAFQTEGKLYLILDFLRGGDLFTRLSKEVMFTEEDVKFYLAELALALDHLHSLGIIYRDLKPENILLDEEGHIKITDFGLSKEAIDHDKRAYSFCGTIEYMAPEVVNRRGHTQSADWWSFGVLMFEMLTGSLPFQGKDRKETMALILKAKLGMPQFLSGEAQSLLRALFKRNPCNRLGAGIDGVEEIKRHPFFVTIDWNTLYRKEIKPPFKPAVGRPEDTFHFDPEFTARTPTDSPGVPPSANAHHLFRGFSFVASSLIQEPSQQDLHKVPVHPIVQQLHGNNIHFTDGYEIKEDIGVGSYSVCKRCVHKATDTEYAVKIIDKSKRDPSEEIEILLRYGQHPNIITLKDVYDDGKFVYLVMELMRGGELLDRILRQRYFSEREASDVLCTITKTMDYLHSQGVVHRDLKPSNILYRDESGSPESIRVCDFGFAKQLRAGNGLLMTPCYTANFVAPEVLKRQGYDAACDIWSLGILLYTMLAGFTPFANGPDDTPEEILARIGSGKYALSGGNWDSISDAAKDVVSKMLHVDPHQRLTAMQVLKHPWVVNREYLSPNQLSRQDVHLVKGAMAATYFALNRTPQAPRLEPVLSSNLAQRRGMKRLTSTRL
Sequence of ALK tyrosine kinase receptor (Homo sapiens), Q9UM73 [C1156Y] (Q9UM73 whole entry C1156Y, looked up): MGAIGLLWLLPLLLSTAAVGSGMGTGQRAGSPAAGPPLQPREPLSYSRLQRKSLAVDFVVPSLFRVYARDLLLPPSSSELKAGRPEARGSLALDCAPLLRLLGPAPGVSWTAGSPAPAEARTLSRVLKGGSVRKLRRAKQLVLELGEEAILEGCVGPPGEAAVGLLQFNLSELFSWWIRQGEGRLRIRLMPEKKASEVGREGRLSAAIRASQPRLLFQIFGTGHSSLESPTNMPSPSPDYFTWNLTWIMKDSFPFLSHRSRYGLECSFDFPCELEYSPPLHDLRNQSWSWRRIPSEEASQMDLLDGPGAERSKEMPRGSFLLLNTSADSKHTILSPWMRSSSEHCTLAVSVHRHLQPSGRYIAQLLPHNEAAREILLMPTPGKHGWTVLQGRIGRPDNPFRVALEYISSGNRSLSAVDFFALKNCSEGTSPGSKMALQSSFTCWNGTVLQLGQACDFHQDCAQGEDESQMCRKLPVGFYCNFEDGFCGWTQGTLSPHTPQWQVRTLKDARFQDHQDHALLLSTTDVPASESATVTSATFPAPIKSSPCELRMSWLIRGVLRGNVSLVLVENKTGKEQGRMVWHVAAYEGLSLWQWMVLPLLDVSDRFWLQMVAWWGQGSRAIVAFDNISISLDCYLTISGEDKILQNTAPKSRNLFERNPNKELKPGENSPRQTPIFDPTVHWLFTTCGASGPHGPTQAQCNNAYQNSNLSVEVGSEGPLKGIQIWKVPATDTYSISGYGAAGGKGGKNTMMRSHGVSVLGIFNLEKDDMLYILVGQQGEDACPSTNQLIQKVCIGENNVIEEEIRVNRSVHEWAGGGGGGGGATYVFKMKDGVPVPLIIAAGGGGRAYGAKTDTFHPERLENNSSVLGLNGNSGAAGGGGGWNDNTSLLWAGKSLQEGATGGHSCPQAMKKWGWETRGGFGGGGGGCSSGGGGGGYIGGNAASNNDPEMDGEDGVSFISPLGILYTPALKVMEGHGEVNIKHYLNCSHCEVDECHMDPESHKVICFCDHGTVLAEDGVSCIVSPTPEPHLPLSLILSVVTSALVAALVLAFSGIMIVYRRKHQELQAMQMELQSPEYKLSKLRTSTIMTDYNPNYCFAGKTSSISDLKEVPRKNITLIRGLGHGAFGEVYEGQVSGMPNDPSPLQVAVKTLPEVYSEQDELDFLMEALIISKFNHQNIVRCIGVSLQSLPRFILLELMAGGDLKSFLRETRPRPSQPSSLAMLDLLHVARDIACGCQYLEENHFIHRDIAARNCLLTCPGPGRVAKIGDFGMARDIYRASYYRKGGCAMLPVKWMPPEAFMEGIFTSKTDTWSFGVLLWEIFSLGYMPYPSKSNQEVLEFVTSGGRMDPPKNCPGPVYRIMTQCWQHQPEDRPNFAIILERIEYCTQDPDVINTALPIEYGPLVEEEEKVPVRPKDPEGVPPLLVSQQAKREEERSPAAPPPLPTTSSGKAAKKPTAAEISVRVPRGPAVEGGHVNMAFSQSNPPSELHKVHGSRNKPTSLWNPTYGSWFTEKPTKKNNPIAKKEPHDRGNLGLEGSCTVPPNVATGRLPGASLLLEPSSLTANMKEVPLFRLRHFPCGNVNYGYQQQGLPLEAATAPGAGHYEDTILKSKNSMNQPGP
Sequence of Serine/threonine-protein kinase tousled-like 2 (Homo sapiens) (Q86UE8 whole entry, looked up): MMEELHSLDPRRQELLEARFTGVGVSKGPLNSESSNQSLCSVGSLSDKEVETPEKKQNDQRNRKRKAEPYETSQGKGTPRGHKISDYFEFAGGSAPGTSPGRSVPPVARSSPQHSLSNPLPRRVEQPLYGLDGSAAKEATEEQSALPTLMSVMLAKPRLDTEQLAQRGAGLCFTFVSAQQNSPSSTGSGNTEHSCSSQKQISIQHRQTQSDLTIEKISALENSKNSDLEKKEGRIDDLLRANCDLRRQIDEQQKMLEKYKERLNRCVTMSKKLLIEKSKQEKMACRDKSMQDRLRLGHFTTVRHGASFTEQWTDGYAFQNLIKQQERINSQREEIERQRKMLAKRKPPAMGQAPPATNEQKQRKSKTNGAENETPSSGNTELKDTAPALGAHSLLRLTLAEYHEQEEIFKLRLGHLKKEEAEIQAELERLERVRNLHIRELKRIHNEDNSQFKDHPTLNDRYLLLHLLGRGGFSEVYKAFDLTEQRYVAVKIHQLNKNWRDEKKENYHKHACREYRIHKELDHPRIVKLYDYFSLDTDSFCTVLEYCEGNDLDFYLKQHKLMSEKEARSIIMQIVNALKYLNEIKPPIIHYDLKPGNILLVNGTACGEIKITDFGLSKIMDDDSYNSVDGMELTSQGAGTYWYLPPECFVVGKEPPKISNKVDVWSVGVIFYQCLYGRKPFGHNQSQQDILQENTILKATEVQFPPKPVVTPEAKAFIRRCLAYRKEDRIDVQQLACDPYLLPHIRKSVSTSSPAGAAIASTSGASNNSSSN
Sequence of Cyclin-dependent kinase 9 (Homo sapiens) (P50750 whole entry): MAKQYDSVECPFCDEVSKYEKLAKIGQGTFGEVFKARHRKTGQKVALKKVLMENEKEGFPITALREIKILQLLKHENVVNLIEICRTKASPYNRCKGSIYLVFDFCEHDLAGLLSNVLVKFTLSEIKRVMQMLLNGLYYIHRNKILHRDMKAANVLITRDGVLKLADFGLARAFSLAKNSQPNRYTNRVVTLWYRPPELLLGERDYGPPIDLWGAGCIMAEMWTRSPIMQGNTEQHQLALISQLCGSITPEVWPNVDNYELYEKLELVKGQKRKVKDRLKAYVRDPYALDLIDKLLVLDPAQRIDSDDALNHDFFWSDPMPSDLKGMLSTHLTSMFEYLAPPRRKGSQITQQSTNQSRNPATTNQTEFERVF
Sequence of Bone morphogenetic protein receptor type-2 (Homo sapiens) (Q13873 whole entry): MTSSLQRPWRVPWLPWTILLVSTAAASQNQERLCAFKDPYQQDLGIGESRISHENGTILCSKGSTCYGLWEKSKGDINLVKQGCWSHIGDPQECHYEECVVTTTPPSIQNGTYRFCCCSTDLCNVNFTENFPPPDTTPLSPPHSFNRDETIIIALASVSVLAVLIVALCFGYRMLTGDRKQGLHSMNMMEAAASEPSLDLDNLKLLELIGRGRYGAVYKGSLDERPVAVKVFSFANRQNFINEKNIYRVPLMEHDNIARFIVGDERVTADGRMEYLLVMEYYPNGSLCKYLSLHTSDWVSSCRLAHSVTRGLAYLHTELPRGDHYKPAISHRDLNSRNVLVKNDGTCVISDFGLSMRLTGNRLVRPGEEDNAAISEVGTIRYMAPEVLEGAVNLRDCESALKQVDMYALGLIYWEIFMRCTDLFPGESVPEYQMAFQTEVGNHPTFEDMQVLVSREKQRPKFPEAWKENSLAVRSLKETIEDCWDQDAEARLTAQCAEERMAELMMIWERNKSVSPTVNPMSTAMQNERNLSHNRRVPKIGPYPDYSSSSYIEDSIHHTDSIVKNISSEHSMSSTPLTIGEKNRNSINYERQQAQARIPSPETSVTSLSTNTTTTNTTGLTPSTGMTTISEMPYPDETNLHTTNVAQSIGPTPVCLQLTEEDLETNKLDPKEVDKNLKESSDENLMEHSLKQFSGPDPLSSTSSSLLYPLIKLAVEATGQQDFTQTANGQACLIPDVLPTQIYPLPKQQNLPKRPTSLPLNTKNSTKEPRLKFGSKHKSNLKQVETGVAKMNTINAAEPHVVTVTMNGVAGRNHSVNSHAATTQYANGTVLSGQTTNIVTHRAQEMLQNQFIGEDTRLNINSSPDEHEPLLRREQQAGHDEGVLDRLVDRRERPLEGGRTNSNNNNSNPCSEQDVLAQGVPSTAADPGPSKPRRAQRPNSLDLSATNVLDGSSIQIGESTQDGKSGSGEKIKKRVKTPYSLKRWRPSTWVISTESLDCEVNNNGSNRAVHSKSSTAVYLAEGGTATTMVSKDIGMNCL
Sequence of MAP kinase-activated protein kinase 2 (Homo sapiens) (P49137 whole entry, looked up): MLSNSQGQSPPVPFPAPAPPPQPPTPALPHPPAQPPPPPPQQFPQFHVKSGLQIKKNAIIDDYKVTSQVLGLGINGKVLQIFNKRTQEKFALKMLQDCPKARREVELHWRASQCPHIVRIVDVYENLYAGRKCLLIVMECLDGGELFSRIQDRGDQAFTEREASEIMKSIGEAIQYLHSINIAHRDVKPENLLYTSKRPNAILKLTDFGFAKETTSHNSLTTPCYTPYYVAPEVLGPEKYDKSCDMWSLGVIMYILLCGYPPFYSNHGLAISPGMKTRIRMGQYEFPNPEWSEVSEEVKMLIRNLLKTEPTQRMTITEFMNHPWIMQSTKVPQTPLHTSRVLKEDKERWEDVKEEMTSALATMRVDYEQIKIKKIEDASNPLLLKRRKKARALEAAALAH

O=C1CCc2cc(Nc3cc(OC4CCOCC4)c([N+](=O)[O-])cc3Cl)ccc2N1
inactive: residual activity [1] 100% | residual activity [2] 88% | residual activity [3] 79% | residual activity [4] 100% | residual activity [5] 88% | residual activity [6] 85% | residual activity [7] 100% | residual activity [8] 100% | residual activity [9] 60% | residual activity [10] 100% | residual activity [11] 100% | residual activity [12] 98% | residual activity [13] 84% | residual activity [14] 98% | residual activity [15] 81% | residual activity [16] 89% | residual activity [17] 92% | inhibition [18] 12.4% | residual activity [19] 78% | inhibition [20] 4.66% | residual activity [21] 91% | residual activity [22] 94% | residual activity [23] 81% | residual activity [24] 91% | residual activity [25] 83% | residual activity [26] 93% | residual activity [27] 100% | residual activity [28] 100% | residual activity [29] 83% | residual activity [30] 81% | residual activity [31] 100% | residual activity [32] 92% | residual activity [33] 100% | residual activity [34] 100% | residual activity [35] 97% | residual activity [36] 100% | residual activity [37] 76% | residual activity [38] 88% | residual activity [39] 73% | residual activity [40] 99% | residual activity [41] 83% | residual activity [42] 90% | residual activity [43] 100% | residual activity [44] 81% | inhibition [45] 7.4%

N#Cc1ccc(Nc2ccc3[nH]c(=O)[nH]c3c2)c(Cl)c1
inactive: residual activity [1] 99% | residual activity [2] 100% | residual activity [3] 87% | residual activity [4] 100% | residual activity [5] 92% | residual activity [6] 56% | residual activity [7] 100% | residual activity [8] 100% | residual activity [9] 65% | residual activity [10] 100% | residual activity [11] 100% | residual activity [12] 100% | residual activity [13] 100% | residual activity [14] 89% | residual activity [15] 100% | residual activity [16] 100% | residual activity [17] 91% | inhibition [18] 8.98% | residual activity [19] 92% | inhibition [20] 2.09% | residual activity [21] 100% | residual activity [22] 100% | residual activity [23] 96% | residual activity [24] 100% | residual activity [25] 86% | residual activity [26] 100% | residual activity [27] 100% | residual activity [28] 98% | residual activity [29] 100% | residual activity [30] 100% | residual activity [31] 100% | residual activity [32] 100% | residual activity [33] 100% | residual activity [34] 74% | residual activity [35] 100% | residual activity [36] 100% | residual activity [37] 79% | residual activity [38] 84% | residual activity [39] 73% | residual activity [40] 100% | residual activity [41] 91% | residual activity [42] 100% | residual activity [43] 100% | residual activity [44] 100% | inhibition [45] -7.86%
